# Where “and” joins values, the source holds several entries; their conditions need not be identical. Equal entries are not always repeated. Entries after “also recorded” stand apart in the source; their conditions may differ.
# Experiments:
# [1] = system: neuropathic pain (mechanical allodynia); assay: Loose sciatic nerve ligation model of neuropathic pain, Von Frye filament test; format: in vivo, rat
# Description: The effects of 2-deoxy-D-glucose (2-DG), which has acute anticonvulsant properties in hippocampal slices and prevents the consequences of repeated evoked network synchronization in the kindling model of epilepsy, were evaluated for treatment of neuropathic pain. The effects of 2-DG were examined in the loose sciatic nerve ligation rat model of neuropathic pain. […] Effects of 2-DG on neuropathic pain were assessed by measurement of hindlimb withdrawal latency to mechanical stimulation and development of mechanical allodynia according to standardized methods.
# Male Sprague-Dawley rats (Harlan, 250-350 g) were behaviorally tested by measuring hindlimb withdrawal latency in response to mechanical stimulation of the hindlimb with standardized Von Frye filaments of increasing diameter, in order to verify that all animals initially had normal responses prior to surgical procedures and treatments. In the Von Frye method, animals are placed on a wire mesh floor, and the hindlimb is stroked with standardized filaments of increasing diameter until withdrawal is observed. The size of the filament evoking withdrawal is the Von Frye score. Withdrawal to smaller filaments indicates hyperalgesia, or mechanical allodynia when normally innocuous filaments produce withdrawal, and are regarded as measures of pain. Baseline withdrawal scores were used to assess effects of sciatic ligation and treatment with 2-DG.
# After obtaining baseline measurements, animals were then anesthetized with a combination of ketamine 70 mg/kg IP and xylazine […]. The sciatic nerve was exposed at mid-thigh level by blunt dissection through the biceps femoris muscles. […] The incision was closed in layers, and during the immediate post-operative period the animals were monitored for signs of behavior that would signify unexpected and undesirable reaction to the surgical procedure (loss of weight or appetite, lack of grooming or loss of locomotion).
# Hindlimb withdrawal responses were assessed postoperatively to verify that mechanical allodynia and hyperalgesia were induced as a result of the surgical ligation. […]
# [2] = system: kindled seizures evoked by perforant path stimulation; assay: Kindling model of temporal lobe epilepsy, perforant path stimulation; format: in vivo, rat
# Text: In the kindling model, repeated activation of neural pathways in vivo induces progressive electrographic and behavioral seizures, permanent increases in susceptibility to additional seizures, and eventually spontaneous seizures (Goddard et al., 1969, Experimental Neurology 25: 295-330; Pinel, 1978, Experimental Neurology 58: 190-202; Wada et al., 1975, Canadian Journal of Neurological Sciences 2: 477-492; Sayin et al. 2003, Journal of Neuroscience 23: 2759-2768). Kindling has become the most extensively studied experimental model of epilepsy (McNamara, 1999, Nature 399: A15-22). In a typical kindling protocol, periodic stimulation delivered once or twice daily gradually evokes an increasing synchronous electrical afterdischarge (AD) or electrographic seizure accompanied by a behavioral seizure. […] Kindling can be induced by electrical or chemical activation of a variety of neural pathways in a range of species that include amphibians, mammals, and primates (Morrell and Tsuru, 1976, Electroencephalography and Clinical Neurophysiology 40: 1-11); Wada and Mizoguchi, 1984; Epilepsia 25: 278-287). Because kindling induces permanent alterations in the brain and can be evoked in a range of species by a variety of stimuli, it has been regarded as a phenomenon of long-term brain plasticity as well as a model of temporal lobe epilepsy. The behavioral features of brief repeated kindled seizures evoked by limbic stimulation resemble human partial complex seizures with secondary generalization. In the early stages of limbic kindling in rodents, each stimulation evokes an AD accompanied by a brief partial seizure, which progresses to stimulus-evoked secondary generalized seizures. This feature is an example of the progressive functional alterations induced by kindling that are epileptogenic.
# Adult male Sprague-Dawley rats (weighing between 250-350 g, obtained from Harlan, Madison, Wis.) were anesthetized with ketamine (80 mg/kg intramuscularly) and xylazine (10 mg/kg intramuscularly), and were stereotactically implanted with an insulated stainless steel bipolar electrode for stimulation and recording. The electrode was implanted in the perforant path (8.1 mm posterior, 4.4 mm lateral, 3.5 mm ventral with respect to bregma), and was fixed to the skull with acrylic. After a two-week recovery period following electrode placement, unrestrained, awake, implanted rats received twice-daily kindling stimulation (5 days per week) with a one-second train of 62-Hertz (Hz) biphasic constant current 1.0-millisecond (ms) square wave pulses to induce kindled seizures. The electroencephalogram was recorded from the bipolar electrode, which was switched to the stimulator for the delivery of kindling stimulation. On the first day of stimulation, each rat received a stimulus train of 500 microAmperes (μA). If an AD was evoked, this intensity was used in subsequent stimulations. If no AD was evoked, the stimulation intensity was increased in a sequence of 500, 700, 900, 1000, 1100, 1200, 1300 and 1400 μA until an AD was evoked. The intensity that initially evoked AD was used for subsequent stimulations. […] If AD was evoked by 3 consecutive stimulations at a given intensity, the stimulation intensity was then decreased by 100 μA decrements. At stimulation intensities below 500 μA, the intensity was decreased in 30 μA decrements. These stimulation procedures deliver stimulation at the lowest intensity required to evoke an AD (Sutula and Steward, 1986, Journal of Neurophysiology 56: 732-746; Cavazos et al., 1991, Journal of Neuroscience 11: 2795-2803).
# The anticonvulsant and antiepileptic effects of 2-DG were confirmed in rats that experienced kindled seizures evoked by perforant path stimulation according to the protocol noted above. […]
# [3] = system: rat hippocampal slices (CA3 synchronized burst discharges); assay: Synchronized bursting induced by elevated [K+]o in hippocampal slices, CA3 extracellular recording; format: cell-based
# Description: In these experiments, postnatal day 14 to 35 male Sprague-Dawley rats were anesthetized and decapitated. Brains were removed and transferred to ice cold artificial cerebrospinal fluid (ACSF), comprising 124 mM NaCl, 5 mM KCl, 1.25 mM NaH2PO4, 1.5 mM MgSO4, and 26 mM NaHCO3, supplemented with 10 mM glucose), which was continuously bubbled with 95% O2 and 5% CO2. Transverse hippocampal slices (˜400 microns) were prepared on a Leica VT1000s vibratome (Wetzlar Germany). The slices were allowed to recover for 1 hour at room temperature and were then transferred to an interface recording chamber at 34° C. in ACSF with 7.5 mM [K^+]o. Extracellular recordings were made from the CA3 region with an Axioclamp 2B (Axon Instruments, Forest City, Calif.) using a glass microelectrode filled with 150 mM NaCl. Data were recorded and analyzed using PClamp8 (Axon Instruments).
# Synchronized bursting was induced by incubating hippocampal slices in ACSF supplemented with to a final concentration of 7.5 mM [K^+]o, Baseline recordings were obtained after exposure to elevated [K^+]o for 1 hour and the burst frequency had stabilized.
# The reduction in burst frequency is shown in graphical form in FIG. 7.
# The effects of glucose deprivation on synchronized burst discharges were examined in rat hippocampal slices ex corpora using the methods described in Example 2. Spontaneous synchronized bursts were recorded in CA3 in ACSF containing 10 mM glucose supplemented with 7.5 mM [K^+]o for ˜1 hr, and then in glucose-free ACSF supplemented with 10 mM lactate or 10 mM pyruvate. […] The interburst interval increased to 24 seconds when the slice was exposed to glucose-free ACSF supplemented with 10 mM lactate, indicating an anticonvulsant effect of glucose deprivation.
smiles,measurement,setting,value
"O=CC[C@@H](O)[C@H](O)[C@H](O)CO [2-DG, 2-deoxy-D-glucose]",Day of administration after which pain-reducing effects diminished or were extinguished,[1]; 250 mg/kg IP,4 to 5 days and 4 days
same,Motor or behavioral impairments,[1]; 250 mg/kg IP,did not result in any apparent motor or behavioral impairments
same,Mechanical allodynia (Von Frye score) compared to saline,"[1]; 250 mg/kg IP 30 minutes prior to testing, n=10, p=0.044 day 1, p<0.001 day 2",acutely reduced mechanical allodynia
same,Duration of anticonvulsant effects after stopping 2-DG,"[2]; 250 mg/kg twice daily for 3 months, twice daily stimulation continued",approximately 8 weeks
same,Effective dose in rats,[2]; intraperitoneal or subcutaneous administration,250 mg/kg
same,Time AD threshold remained elevated after stopping twice daily 2-DG,"[2]; kindled rat, 250 mg/kg IP",≤ 6 weeks
same,Effect on AD threshold compared to saline controls,"[2]; rats n=15 vs saline n=12, p<0.001 ANOVA, FIG. 2A",increased the AD threshold
same,ADs to Class 4,"[2]; rats, 2-DG 250 mg/kg IP 30 minutes before stimulation",20.9 +/− 4.0 ADs
same,ADs to Class 5 (first Class V generalized tonic clonic seizure),"[2]; rats, 2-DG 250 mg/kg IP 30 minutes before stimulation, n=11, p<0.03 vs saline",27.7±6.0 ADs and 27.7 +/− 6.0 ADs
same,ADs to Class 3,"[2]; rats, 2-DG 250 mg/kg IP 30 minutes before stimulation, number of afterdischarges to reach seizure class",16.7 +/− 3.1 ADs
same,AD threshold during repeated 2-DG administration,"[2]; single kindled rat, 250 mg/kg IP, from 200 μA, about 2-3 weeks of twice daily stimulation",~1500 μA
same,AD threshold after restarting 2-DG,"[2]; single kindled rat, FIG. 3, 250 mg/kg IP, rose from ~200 μAmps during 2-3 weeks",1500 μAmps
same,Progressive reduction in AD threshold with repeated ADs,"[2]; single rat, FIG. 3, 250 mg/kg IP prior to each stimulation, after the third evoked AD",appeared to prevent the progressive reduction in AD threshold
same,Burst frequency (epileptic bursts) after bath application,"[3]; 1 mM 2-DG, 7.5 mM [K+]o, FIG. 4B/4C",reduction in epileptic bursts; also recorded: decreased progressively
same,Persistence of anticonvulsant effect after return to ACSF without 2-DG,"[3]; ACSF with 7.5 mM [K+]o, FIG. 5B",≤ 60 min
"O=C(O)CI [iodoacetate, reference compound]",Synchronized bursting in presence of iodoacetate,"[3]; 200 uM iodoacetate, ACSF with 10 mM glucose or 10 mM lactate, FIGS. 6 and 7",reduced synchronized bursting
same,Reduction in epileptic bursts with lactate as alternative energy source,"[3]; iodoacetate, lactate provided, FIG. 7",persists
CC(O)C(=O)O (stereo not drawn) [lactate],Interburst interval,"[3]; glucose-free ACSF with 10 mM substitute energy source, 7.5 mM [K+]o, baseline in 10 mM glucose ~3.8 seconds",24 s
